# Where “and” joins values, the source holds several entries; their conditions need not be identical. Equal values may be shown once.
# Columns and labels:
# [1] = system: B. amyloliquefaciens ART12; assay: Antibiotic MIC, VetMIC Lact-1 & Lact-2 panels; format: cell-based, Bacillus amyloliquefaciens; conditions: Bacillus amyloliquefaciens, ART12; 24 hr at 37° C.
# Protocol: (§1) The wells of the prefabricated 96-well plates were filled with 100 μL of the final suspension. The plates were sealed with an […], Sigma Aldrich) sealing film (to facilitate growth of the aerobic Bacillus strains. The plates were then incubated for 24 hr at 37° C. The results are recorded after 24 hours as the lowest concentration of the antibiotic to inhibit visible growth. The prefabricated panels […], Uppsala, Sweden) comprising the antibiotics ampicillin, vancomycin, gentamicin, kanamycin, streptomycin, erythromycin, clindamycin, tetracycline, chloramphenicol, neomycin, penicillin, quinupristin-dalfopristin, linezolid, trimethoprim, ciprofloxacin and rifampicin were used.
# [2] = system: B. amyloliquefaciens ART24; assay: Antibiotic MIC, VetMIC Lact-1 & Lact-2 panels; format: cell-based, Bacillus amyloliquefaciens; conditions: Bacillus amyloliquefaciens, ART24; 24 hr at 37° C.
# Protocol: as §1
# [3] = system: B. amyloliquefaciens ART4; assay: Antibiotic MIC, VetMIC Lact-1 & Lact-2 panels; format: cell-based, Bacillus amyloliquefaciens; conditions: Bacillus amyloliquefaciens, ART4; 24 hr at 37° C.
# Protocol: as §1
# [4] = system: B. amyloliquefaciens ART24; assay: Antibiotic MIC following EFSA testing recommendations on lyophilized ART24 lots and cell banks; format: cell-based, Bacillus amyloliquefaciens
# Excerpt: The minimum inhibitory concentration (MIC) of the listed antimicrobials is expressed as µg/mL.
# C. difficile ATCC 43255 = assay: C. difficile mouse model, in vivo efficacy; set-up: species or system Mice (C57BL/6J female); conditions: to study day 10 post-C. difficile infection
# Protocol: C. difficile mouse model. The mouse model of C. difficile infection was prepared as described elsewhere (Chen, X, et al., Gastroenterology 135:1984-1992 (2008)).
# Mice (C57BL/6J female) were divided prospectively into 4 treatment groups of 15 animals (Table 7) and housed 5 animals per cage.
# Mice received an antibiotic cocktail for eight consecutive days in their drinking water starting 13 days prior to C. difficile infection (study day 0). The antibiotic cocktail was changed every third day with freshly prepared antibiotics provided. The antibiotic cocktail consisted of 1% glucose, kanamycin (0.5 mg/mL), gentamicin (0.044 mg/mL), colistin (1062.5 U/mL), metronidazole (0.269 mg/mL), ciprofloxacin (0.156 mg/mL), ampicillin (0.1 mg/mL) and vancomycin (0.056 mg/mL). Five days prior to C. difficile infection, the antibiotic water was removed. Animals were placed in clean cages and sterile drinking water provided to the mice. Three days prior to infection mice were administered Clindamycin at 10 mg/kg via oral gavage in a volume of 10 mL/kg.
# The strain was applied to TSA agar plates from frozen stocks (3 days prior to dosing) and cultured overnight at 37° C. […]
# Mice were observed daily through the course of the study. […] Clinical observations were also performed with adverse observations recorded when appropriate. […]
smiles,measurement,setting,value
CN[C@H](CC(C)C)C(=O)N[C@H]1C(=O)N[C@@H](CC(N)=O)C(=O)N[C@H]2C(=O)N[C@H]3C(=O)N[C@H](C(=O)N[C@H](C(=O)O)c4cc(O)cc(O)c4-c4cc3ccc4O)[C@H](O)c3ccc(c(Cl)c3)Oc3cc2cc(c3O[C@@H]2O[C@H](CO)[C@@H](O)[C@H](O)[C@H]2O[C@H]2C[C@](C)(N)[C@H](O)[C@H](C)O2)Oc2ccc(cc2Cl)[C@H]1O [Vancomycin],MIC,[1],0.5 µg/mL
same,MIC,[2],0.5 to 1 µg/mL
same,MIC,[3],0.5 µg/mL
same,MIC interpretation for ART24,[4],0.5 (S) and ≤0.25 (S)
same,MIC,"[4]; Bacillus amyloliquefaciens, ART24, read-out: MIC for ART24",0.5 µg/mL
same,animals survived (survivors/group),C. difficile ATCC 43255,15/15
